Measurements reported in patent US7199162B1, “Use of treosulfan for patient conditioning before bone marrow or blood stem cell transplantation” (Medac Gesellschaft fur Klinische Spezialpraparate mbH, priority 1999, dated 2007).

Legend:
[1] = system: donor-type chimerism in the recipient; experiment: H-2-compatible allogenic bone-marrow transplantation trial (C.B10→B6); assay type: in vivo, mice; conditions: substance alone, treosulfan in fractionated doses
Experimental: Treosulfan administered in fractionated doses was also evaluated in an H-2-compatible allogenic bone-marrow transplantation trial (C.B10→B6). In this trial, an immunological reaction resulting in rejection of the transplant must be prevented by conditioning with e.g. treosulfan, before growth of the transplant is possible.

water solubility = assay type: physicochemical
[2] = system: haematopoietic stem cells in the host bone marrow; experiment: cobblestone area forming cell assay (CAFC) on host bone marrow 24 hours after administration, murine bone-marrow transplantation model; assay type: in vivo; conditions: recipient mice (BG-Gpi-1b), 3×2500 mg/kg daily fractionation, CAFC 24 hours after administration
Experimental: The recipient mice (BG-Gpi-1^b) were treated with 3×2500 mg/kg or 7500 mg/kg (corresponding to 22.5 g/m^2) treosulfan or 50 mg/kg busulfan. 24 hours after administration the elimination of the different haematopoietic stem cells in the host bone marrow was ascertained using the in vitro cobblestone area forming cell assays (CAFC; cf. Ploemacher et al., Blood 78 (1991) 2527–2533).

[3] = pharmacokinetic properties after intravenous administration
[4] = non-haematological toxicity profile; conditions: general statement, in contrast to busulfan

water-solubility (water solubility) | SMILES | induction of donor-type chimerism / conditioning before allogenic bone-marrow transplantation [1] | elimination of both the primitive and the "committed" progenitor cells [2] | pharmacokinetic properties [3] | non-haematological toxicity (liver, kidney, CNS, lung) [4]
low solubility | CS(=O)(=O)OCCCCOS(C)(=O)=O [busulfan] | unable to bring about effective conditioning |  |  | 
consistent high water-solubility | CS(=O)(=O)OC[C@H](O)[C@@H](O)COS(C)(=O)=O [treosulfan[…]] | almost complete and stable donor-type chimerism | 3 to 5 powers of ten | reliable and linear pharmacokinetic properties | no significant liver, kidney, CNS or lung toxicity
